This is an account of results in publication PMC6940745 (International Journal of Molecular Sciences, 2019).

For one assay, the system named is other MCRs. On the set-up: method as in PMID 12591094, PMID 12576087. Conditions: MCRs besides MC1R; cited from earlier work.
The target of assay [1] is Melanocortin-1 receptor (MC1R), human recombinant, in CHO-K1 cells (human) (UniProt Q01726).

A value given as a limit tells only on which side of the number the result lay.

Melanocortin-1 receptor (MC1R), human recombinant, in CHO-K1 cells (human), sequence (Q01726 whole entry): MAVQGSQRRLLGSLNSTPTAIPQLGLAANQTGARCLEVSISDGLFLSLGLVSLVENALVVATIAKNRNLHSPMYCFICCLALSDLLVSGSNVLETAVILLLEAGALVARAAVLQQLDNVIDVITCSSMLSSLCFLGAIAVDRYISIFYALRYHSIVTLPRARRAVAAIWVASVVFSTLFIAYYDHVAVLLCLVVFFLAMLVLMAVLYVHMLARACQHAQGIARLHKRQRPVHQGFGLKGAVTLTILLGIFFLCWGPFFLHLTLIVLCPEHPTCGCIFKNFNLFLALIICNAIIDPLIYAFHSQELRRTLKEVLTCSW

Regarding “Ac-Ser-Tyr-Ser-Met-Glu-His-Phe-Arg-Trp- Gly-Lys-Pro-Val-NH2 [alpha-MSH]”, the “Potency among other MCRs” value with other MCRs is not above 5 nM.

For the substance “NDP-alpha-MSH [Nle^4, D-Phe^7] (peptide)”, in assay [1], the EC50 of MC1R activation (cAMP production, recombinant CHO-MC1R cell line; control compound) amounted to 0.071 nM.
